Assay results reported in publication PMC12775434, “Ultra-large virtual screening unveils potent agonists of the neuromodulatory orphan receptor GPR139” (Nature Communications, 2025).
Where “and” joins values, the source holds several entries; their conditions need not be identical. Equal entries are not always repeated.

Columns and labels:
Format in all cases: cell-based
GPR139 (GoA activation) = biological target: T1, GPR139 (GoA activation) (Homo sapiens, UniProt Q6DWJ6); experiment: BRET G protein activation (dissociation) assay, GoA, HEK293A; settings: for G protein activation, GoA: individual replicates
T1 construct: expressed in transfected cells; host or cells: HEK293A (transient, Lipofectamine 2000)
T1 sequence (Q6DWJ6 1-353): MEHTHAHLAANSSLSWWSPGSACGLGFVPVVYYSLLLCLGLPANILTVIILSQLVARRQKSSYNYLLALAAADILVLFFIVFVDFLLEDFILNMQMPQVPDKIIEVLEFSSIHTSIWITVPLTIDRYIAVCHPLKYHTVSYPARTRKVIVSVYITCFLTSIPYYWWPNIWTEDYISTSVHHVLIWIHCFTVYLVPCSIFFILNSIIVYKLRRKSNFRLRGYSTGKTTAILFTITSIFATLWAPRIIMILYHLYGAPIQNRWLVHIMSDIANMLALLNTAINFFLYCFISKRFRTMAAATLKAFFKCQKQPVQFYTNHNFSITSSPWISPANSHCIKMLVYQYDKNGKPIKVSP
Experimental: (§1) Primary screening and pharmacological characterization of compounds were performed using a CHO-K1 cell line that stably expresses human GPR139 (GPR139-CHOk1). The GPR139-CHOk1 cell line was kindly provided by H. Lundbeck A/S, Denmark[24]. GPR139-CHOk1 cells were grown in Ham’s F-12 Kaighn’s Modification Medium (ThermoFisher #21127030) supplemented with 10% dialyzed fetal bovine serum (US origin, ThermoFisher #26400044), 100 units/mL Penicillin-Streptomycin (ThermoFisher #15140122), and 1 mg/mL Geneticin (ThermoFisher #11811031). […] M1R-CHOk1 cells were purchased from The Missouri S&T cDNA Resource Center (#CEM100TN00). M1R-CHOk1 cells were grown in Ham’s F12 Medium (ThermoFisher #21765029) supplemented with 10% fetal bovine serum (Brazilian origin, ThermoFisher #10270106), 100 units/mL Penicillin-Streptomycin, and 0.25 mg/mL Geneticin. HEK293A cells transiently transfected with GPR139 were used for additional pharmacological assessment of signaling pathways activated by GPR139. HEK239A cells were generously provided by Dr. Asuka Inoue, Tohoku University, Japan. HEK293A cells were grown in Dulbecco’s Modified Eagle Medium (ThermoFisher #31966047) supplemented with 10% dialyzed fetal bovine serum and 100 units/mL Penicillin-Streptomycin. Cell lines were maintained at 37 °C in humidified incubator equilibrated with 5% CO2.
(§2) The G protein dissociation assay developed by the lab of Kirill A. Martemyanov was used to measure the coupling of multiple G proteins by GPR139[57]. The assay was performed as described previously with minor modifications. HEK293A cells were reverse transfected 20–24 h prior to assay. 50,000 cells were plated in each well of white opaque tissue culture treated 96-well plates (PerkinElmer #6005680) previously coated with poly-D-lysine. Transfection solutions were prepared as described, and 10 µL transfection solution was mixed with 100 µL cells in each well. The cells in each well were transfected with 18.9 ng GPR139, 6.3 ng Venus 1-155 Gγ2, 6.3 ng Venus 159-239 Gβ1, 6.3 ng masGRK3ct-NanoLuc and 12.6 ng Gαi2, 12.6 ng Gαi3, 12.6 ng GαoA, 12.6 ng Gαq or 25.2 ng Gα12 using 375 nL Lipofectamine 2000 Transfection Reagent. Transfections with Gαq and Gα12 contained 6.3 ng DNA of the active subunit S1 of pertussis toxin (PTX-S1). Each transfection was normalized to 150 ng total DNA with pcDNA3.1. The BRET biosensors were a kind gift from the Martemyanov lab. On the day of the experiment the cells were washed with HEPES buffer. Test compounds were diluted in HEPES buffer from DMSO stocks (final DMSO concentration of maximally 0.3%). NanoLuc Luciferase substrate NanoGlo—furimazine (Promega #N1120) was diluted 1000-fold (final) in HEPES buffer. NanoGlo and test compounds were added, and measurements were performed after 10 s for Gi3, 15 s for Gi2 and GoA, 20 s for Gq, and 90 s for G12—the timepoint where maximal signal occurred with each G protein, ensuring proper determination of the potency for the G protein coupling. Simultaneous dual emission was measured at 535 nm and 475 nm on LUMIstar Omega Microplate Reader (BMG Labtech) at room temperature. The BRET ratio of 535 nm/475 nm (Venus/NanoLuc), reflecting the dissociation of the G protein heterotrimer, was used to determine the G protein activation. The basal BRET ratio obtained with buffer condition was subtracted from the absolute BRET ratio at a given test compound concentration, and the responses were normalized to the one obtained with 10 µM JNJ-63533054 for the activation of Gi2.
(§3) Pharmacological data and statistical analyses were performed in GraphPad Prism v9–10 (Graphpad Software Inc., San Diego, CA), which are also specifically described in the figure and table legends. […]

GPR139 (Gq activation) = biological target: T2, GPR139 (Gq activation) (Homo sapiens, UniProt Q6DWJ6); experiment: BRET G protein activation (dissociation) assay, Gq, HEK293A; settings: for G protein activation, Gq: individual replicates
T2 construct: expressed in transfected cells; host or cells: HEK293A (transient, Lipofectamine 2000)
T2 sequence (Q6DWJ6 1-353): T1 sequence (Q6DWJ6 1-353)
Experimental: as §1, §2, §3

GPR139 (G12 activation) = biological target: T3, GPR139 (G12 activation) (Homo sapiens, UniProt Q6DWJ6); experiment: BRET G protein activation (dissociation) assay, G12, HEK293A; settings: for G protein activation, G12: individual replicates
T3 construct: expressed in transfected cells; host or cells: HEK293A (transient, Lipofectamine 2000)
T3 sequence (Q6DWJ6 1-353): T1 sequence (Q6DWJ6 1-353)
Experimental: as §1, §2, §3

[1] = HEK293-A, normalized to JNJ-63533054 (JNJ(S))

Emax (GPR139 (GoA activation); [1]): 75 ± 3%
EC50 (GPR139 (GoA activation); Supplementary Table 6): 794 nM
Emax (GPR139 (Gq activation); [1]): 21 ± 3%
EC50 (GPR139 (Gq activation); Supplementary Table 6): 2510 nM
Emax (GPR139 (G12 activation); [1]): 51 ± 4%
EC50 (GPR139 (G12 activation); Supplementary Table 6, read-out: pEC50 G12 (converted)): 794 nM
Structure (SMILES): Cc1cscc1-c1nc(CC(=O)N[C@H](C)c2ccccc2)no1 [1.1(R)]
G protein activation, GoA (GPR139 (GoA activation); log [compound] M -4.5): 74 % of JNJ-63533054 at Gi2 and 67 % of JNJ-63533054 at Gi2 and 78 % of JNJ-63533054 at Gi2
G protein activation, GoA (GPR139 (GoA activation); log [compound] M -5.0): 69 % of JNJ-63533054 at Gi2 and 63 % of JNJ-63533054 at Gi2 and 75 % of JNJ-63533054 at Gi2
G protein activation, GoA (GPR139 (GoA activation); log [compound] M -5.5): 62 % of JNJ-63533054 at Gi2 and 48 % of JNJ-63533054 at Gi2 and 61 % of JNJ-63533054 at Gi2
G protein activation, GoA (GPR139 (GoA activation); log [compound] M -6.0): 47 % of JNJ-63533054 at Gi2 and 34 % of JNJ-63533054 at Gi2 and 45 % of JNJ-63533054 at Gi2
G protein activation, GoA (GPR139 (GoA activation); log [compound] M -6.5): 19 % of JNJ-63533054 at Gi2 and 16 % of JNJ-63533054 at Gi2 and 26 % of JNJ-63533054 at Gi2
G protein activation, GoA (GPR139 (GoA activation); log [compound] M -7.0): 7.39 % of JNJ-63533054 at Gi2 and 4 % of JNJ-63533054 at Gi2 and 10 % of JNJ-63533054 at Gi2
G protein activation, GoA (GPR139 (GoA activation); log [compound] M -7.5): 0.895 % of JNJ-63533054 at Gi2 and 2 % of JNJ-63533054 at Gi2 and 3.63 % of JNJ-63533054 at Gi2
G protein activation, GoA (GPR139 (GoA activation); log [compound] M -8.0): -4.44 % of JNJ-63533054 at Gi2 and -2.19 % of JNJ-63533054 at Gi2 and 2.68 % of JNJ-63533054 at Gi2
G protein activation, Gq (GPR139 (Gq activation); log [compound] M -4.5): 17 % of JNJ-63533054 at Gi2 (2×) and 25 % of JNJ-63533054 at Gi2
G protein activation, Gq (GPR139 (Gq activation); log [compound] M -5.0): 16 % of JNJ-63533054 at Gi2 and 21 % of JNJ-63533054 at Gi2 and 15 % of JNJ-63533054 at Gi2
G protein activation, Gq (GPR139 (Gq activation); log [compound] M -5.5): 10 % of JNJ-63533054 at Gi2 and 12 % of JNJ-63533054 at Gi2 (2×)
G protein activation, Gq (GPR139 (Gq activation); log [compound] M -6.0): 4.28 % of JNJ-63533054 at Gi2 and 5.63 % of JNJ-63533054 at Gi2 and 5 % of JNJ-63533054 at Gi2
G protein activation, Gq (GPR139 (Gq activation); log [compound] M -6.5): 0.0563 % of JNJ-63533054 at Gi2 and -0.806 % of JNJ-63533054 at Gi2 and 0.934 % of JNJ-63533054 at Gi2
G protein activation, Gq (GPR139 (Gq activation); log [compound] M -7.0): -1.52 % of JNJ-63533054 at Gi2 and -1.69 % of JNJ-63533054 at Gi2 and -0.279 % of JNJ-63533054 at Gi2
G protein activation, Gq (GPR139 (Gq activation); log [compound] M -7.5): -0.908 % of JNJ-63533054 at Gi2 and -3 % of JNJ-63533054 at Gi2 and -0.0719 % of JNJ-63533054 at Gi2
G protein activation, Gq (GPR139 (Gq activation); log [compound] M -8.0): -5.54 % of JNJ-63533054 at Gi2 and -3 % of JNJ-63533054 at Gi2 and 1.13 % of JNJ-63533054 at Gi2
G protein activation, G12 (GPR139 (G12 activation); log [compound] M -4.5): 43 % of JNJ-63533054 at Gi2 and 44 % of JNJ-63533054 at Gi2 and 51 % of JNJ-63533054 at Gi2
G protein activation, G12 (GPR139 (G12 activation); log [compound] M -5.0): 42 % of JNJ-63533054 at Gi2 and 36 % of JNJ-63533054 at Gi2 and 51 % of JNJ-63533054 at Gi2
G protein activation, G12 (GPR139 (G12 activation); log [compound] M -5.5): 35 % of JNJ-63533054 at Gi2 and 29 % of JNJ-63533054 at Gi2 and 39 % of JNJ-63533054 at Gi2
G protein activation, G12 (GPR139 (G12 activation); log [compound] M -6.0): 31 % of JNJ-63533054 at Gi2 and 23 % of JNJ-63533054 at Gi2 and 34 % of JNJ-63533054 at Gi2
G protein activation, G12 (GPR139 (G12 activation); log [compound] M -6.5): 19 % of JNJ-63533054 at Gi2 and 12 % of JNJ-63533054 at Gi2 and 22 % of JNJ-63533054 at Gi2
G protein activation, G12 (GPR139 (G12 activation); log [compound] M -7.0): 6 % of JNJ-63533054 at Gi2 and 6.57 % of JNJ-63533054 at Gi2 and 15 % of JNJ-63533054 at Gi2
G protein activation, G12 (GPR139 (G12 activation); log [compound] M -7.5): 3 % of JNJ-63533054 at Gi2 and 4 % of JNJ-63533054 at Gi2 and 9 % of JNJ-63533054 at Gi2
G protein activation, G12 (GPR139 (G12 activation); log [compound] M -8.0): -4.59 % of JNJ-63533054 at Gi2 and 2 % of JNJ-63533054 at Gi2 and 6 % of JNJ-63533054 at Gi2
